Legend:
[1] = biological target: T1, D-serine-sensitive Na+-independent transporter in rat cortical membranes (Rattus norvegicus, UniProt P63116); assay: Na+-independent [3H]D-serine uptake into rat cortical membranes (synaptosomes); format: biochemical; details: for inhibition of [3H]D-serine uptake (in words): rat cortical synaptosomes
T1 construct: from tissue; host or cells: rat cerebral cortex membranes (P2 synaptosomes), male Wistar rats
T1 sequence (P63116 1-530): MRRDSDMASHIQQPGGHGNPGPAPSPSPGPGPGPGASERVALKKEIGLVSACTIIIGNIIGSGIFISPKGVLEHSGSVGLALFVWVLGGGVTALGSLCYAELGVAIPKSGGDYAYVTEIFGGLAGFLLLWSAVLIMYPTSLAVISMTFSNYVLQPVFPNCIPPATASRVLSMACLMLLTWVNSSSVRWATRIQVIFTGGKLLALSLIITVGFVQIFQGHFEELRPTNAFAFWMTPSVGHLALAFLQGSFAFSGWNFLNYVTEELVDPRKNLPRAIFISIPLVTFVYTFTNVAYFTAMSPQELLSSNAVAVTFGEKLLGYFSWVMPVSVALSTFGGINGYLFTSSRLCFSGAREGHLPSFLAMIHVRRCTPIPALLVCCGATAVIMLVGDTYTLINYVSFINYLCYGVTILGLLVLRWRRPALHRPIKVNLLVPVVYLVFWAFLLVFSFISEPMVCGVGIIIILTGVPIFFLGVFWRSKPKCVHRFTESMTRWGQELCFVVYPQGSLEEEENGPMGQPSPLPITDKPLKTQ
T1 sequence (Q794F9 1-527 partner): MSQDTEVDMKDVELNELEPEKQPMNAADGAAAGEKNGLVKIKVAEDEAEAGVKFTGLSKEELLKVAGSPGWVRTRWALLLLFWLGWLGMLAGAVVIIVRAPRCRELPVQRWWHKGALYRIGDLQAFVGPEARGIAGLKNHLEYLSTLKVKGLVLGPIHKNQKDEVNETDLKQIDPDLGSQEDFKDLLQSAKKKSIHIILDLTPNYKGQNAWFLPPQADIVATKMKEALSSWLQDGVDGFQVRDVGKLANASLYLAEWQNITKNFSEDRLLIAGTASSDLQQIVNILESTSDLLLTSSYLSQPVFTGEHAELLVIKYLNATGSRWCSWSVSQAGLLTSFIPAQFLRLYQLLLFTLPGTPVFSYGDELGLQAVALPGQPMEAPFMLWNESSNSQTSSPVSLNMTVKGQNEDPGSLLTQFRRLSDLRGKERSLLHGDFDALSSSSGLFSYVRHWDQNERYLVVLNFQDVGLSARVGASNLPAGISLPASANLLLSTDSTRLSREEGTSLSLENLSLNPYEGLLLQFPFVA
Method: (§1) Into cortical membranes: Cortex from male Wistar rats (150-200 g) was homogenized in 0.40 M sucrose and centrifuged at 1000×g for 10 min. […] Test compounds and tissue (1 mg orig. tissue/well) were added to 96 well plates and incubated with [^3H]-D-serine (specific activity=26.8 Ci/mmol, PerkinElmer, Cambridge, U.K.) (100 nM final concentration) for 5 min at 25° C. Samples were filtered on Unifilter GF/B glass fiber (Packard Biosciences, Meriden, Conn., USA) and washed with 3×0.25 mL assay buffer. Measurements of [^3H]-D-serine uptake into whole HEK293 cells expressing human asc-1 were performed in 96 well plates with similar conditions except that the cells were incubated for 15 min with radioligand and washed by dipping twice in cold assay buffer following incubation with radioligand. Accumulated radioactivity was extracted from the cells by adding 200 μL scintillation fluid/well (Ultima Gold, Packard Biosciences) and the plates were counted in a Microplates Scintillation Counter (Packard Biosciences). The D-serine uptake in samples containing test compounds was compared to controls without added compound or controls where transport via the asc-1 was inhibited by addition of e.g. 30 mM L-alanine.

human asc-1 = biological target: T2, human asc-1 (Homo sapiens, UniProt Q9NS82); assay: [3H]D-serine uptake into HEK293 cells expressing human asc-1; format: cell-based; details: for inhibition of [3H]D-serine uptake (in words): HEK293 cells expressing the cloned asc-1
T2 construct: expressed in transfected cells; host or cells: HEK293 (ATCC CRL 1573), transient, vector pCI/neo
T2 sequence (Q9NS82 1-523): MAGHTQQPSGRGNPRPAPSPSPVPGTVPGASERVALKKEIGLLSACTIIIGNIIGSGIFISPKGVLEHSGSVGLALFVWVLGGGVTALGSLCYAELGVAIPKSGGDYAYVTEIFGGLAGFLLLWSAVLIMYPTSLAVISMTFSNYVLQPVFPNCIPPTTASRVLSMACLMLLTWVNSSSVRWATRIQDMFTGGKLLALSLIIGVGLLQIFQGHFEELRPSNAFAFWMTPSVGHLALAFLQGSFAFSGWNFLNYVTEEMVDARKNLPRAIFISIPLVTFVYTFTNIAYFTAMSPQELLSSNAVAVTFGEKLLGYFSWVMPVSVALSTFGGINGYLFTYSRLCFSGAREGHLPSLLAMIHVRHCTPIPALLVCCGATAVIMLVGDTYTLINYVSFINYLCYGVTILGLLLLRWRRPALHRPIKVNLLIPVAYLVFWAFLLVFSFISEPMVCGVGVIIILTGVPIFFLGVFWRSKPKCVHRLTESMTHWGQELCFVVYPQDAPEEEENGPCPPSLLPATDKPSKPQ
Method: Uptake was determined 2-4 days after the transfection.
as §1

NMDA receptor = NMDA receptor (Homo sapiens, UniProt Q05586); details: versus glycine; cited from earlier work

block of [3H]D-serine uptake into rat cortical membranes ([1]; rat cortical membranes) | block of uptake via the asc system, including asc-1 (human asc-1; 30 mM) | Structure (SMILES) | inhibition of [3H]D-serine uptake (in words) [1] | inhibition of [3H]D-serine uptake (in words) (human asc-1) | co-agonist potency relative to glycine at the allosteric site on the NMDA receptor (NMDA receptor)
– | – | NC(=O)C[C@H](N)C(=O)O [L-asparagine] | Less effective, but significant inhibition | Less effective, but significant inhibition | –
– | – | C[C@@H](O)[C@H](N)C(=O)O [L-threonine] | effective inhibition | effective inhibition | –
– | – | N[C@@H](Cc1c[nH]cn1)C(=O)O [L-histidine] | Less effective, but significant inhibition | Less effective, but significant inhibition | –
– | – | N[C@@H](CC(=O)O)C(=O)O [L-aspartate] | Inactive | Inactive | –
– | – | CSCC[C@H](N)C(=O)O [L-methionine] | Less effective, but significant inhibition | Less effective, but significant inhibition | –
– | – | N[C@H](CO)C(=O)O [D-serine] | – | – | 3-4 fold
– | – | NC(=O)CC[C@H](N)C(=O)O [L-glutamine] | Inactive | Inactive | –
– | – | N[C@@H](Cc1ccccc1)C(=O)O [L-phenylalanine] | Less effective, but significant inhibition | Less effective, but significant inhibition | –
– | – | N=C(N)NCCC[C@H](N)C(=O)O [L-arginine] | Inactive | Inactive | –
completely blocks | completely block | C[C@H](N)C(=O)O [L-alanine] | effective inhibition | effective inhibition | –
– | – | N[C@@H](Cc1ccc(O)cc1)C(=O)O [L-tyrosine] | Less effective, but significant inhibition | Less effective, but significant inhibition | –
– | – | N[C@@H](CSSC[C@H](N)C(=O)O)C(=O)O [L-cystine] | Inactive | Inactive | –
– | – | N[C@@H](CS)C(=O)O [L-cysteine] | effective inhibition | effective inhibition | –
– | – | CC(C)[C@H](N)C(=O)O [L-valine] | Less effective, but significant inhibition | Less effective, but significant inhibition | –
– | – | O=C(O)[C@@H]1CCCN1 [L-proline] | Inactive | Inactive | –
– | – | NCCCC[C@H](N)C(=O)O [L-lysine] | Inactive | Inactive | –
– | – | N[C@@H](CO)C(=O)O [L-serine] | effective inhibition | effective inhibition | –
– | – | CC[C@H](C)[C@H](N)C(=O)O [L-isoleucine] | Less effective, but significant inhibition | Less effective, but significant inhibition | –
– | – | NCC(=O)O [L-glycine] | effective inhibition | effective inhibition | –
– | – | N[C@@H](CCC(=O)O)C(=O)O [L-glutamate] | Inactive | Inactive | –
– | – | CC(C)C[C@H](N)C(=O)O [L-leucine] | Less effective, but significant inhibition | Less effective, but significant inhibition | –

From patent US20050176826A1, “Use of asc-1 inhibitors to treat neurological and psychiatric disorders” (H. Lundbeck A/S, priority 2002, published 2005)
